Reference: US20250017891A1, “PHARMACEUTICAL COMPOSITION COMPRISING CABAZITAXEL PRODRUG-CYCLODEXTRIN INCLUSION COMPLEX, AND APPLICATIONS THEREOF” (TWI PHARMACEUTICALS, INC., priority 2023, published 2025)
Several values for one entry are separate records, joined by “and”; a condition that tells them apart may be missing. Identical values can stand only once. Like-named read-outs stand apart in the source and are kept apart here.

Key:
[1] = Hydrolysis of CBT succinate dissolved in the aqueous preclinical formulation; assay type: physicochemical; conditions: 50% PEG300 in normal saline
[2] = Saturation test of CBT succinate-SBECD (1:2.2), solubility; assay type: physicochemical; conditions: aqueous buffer, thermodynamic from solid, excess complex dissolved by 20 mM pH 8.0 phosphate buffer, read-out: CBT succinate water solubility
From the text: For the CBT succinate-SBECD (1:2.2), a saturation test was further carried out.

[3] = In vivo bioconversion of CBT succinate in 50% PEG300 formulation, IV, mouse plasma by LC-MS/MS; design: species or system ICR male mice; conditions: 15 mg/kg IV
Procedure: The bioanalysis results are tabulated as Tables 1 to 3 below. The values of mean and standard deviation (SD) are calculated. BLOQ means “below the limit of quantification”, and N/A means “not available”. Normal saline used herein is 0.90% sodium chloride aqueous solution.
C0: Initial concentration; • 3. […] AUC/D: AUC divided by dose; • 6.

[4] = even in the mixed solvent of water and organic reagent; cited from earlier work
[5] = analyte Cabazitaxel in mouse plasma, CBT succinate in 50% PEG300 formulation, time 24 h
[6] = male, ICR, mouse plasma, CBT succinate in 50% PEG300 formulation
[7] = mouse plasma, CBT succinate in 50% PEG300 formulation
[8] = mouse plasma, CBT succinate in 50% PEG300 formulation, time 4 h
[9] = mouse plasma, CBT succinate in 50% PEG300 formulation, time 8 h
[10] = mouse plasma, CBT succinate in 50% PEG300 formulation, time 24 h

## CO[C@H]1C(=O)[C@]2(C)[C@@H](OC)C[C@H]3OC[C@@]3(OC(C)=O)[C@H]2[C@H](OC(=O)c2ccccc2)[C@]2(O)C[C@H](OC(=O)[C@H](OC(=O)CCC(=O)O)[C@@H](NC(=O)OC(C)(C)C)c3ccccc3)C(C)=C1C2(C)C [CBT succinate, cabazitaxel succinate]
[1]
  hydrolysis when dissolved in the aqueous preclinical formulation: prone to hydrolysis
[2]
  solubility: 120 µg/mL
[3]; analyte Cabazitaxel in mouse plasma, CBT succinate in 50% PEG300 formulation, time 8 h, 15 mg/kg
  CBT concentration (individual mouse): BLOQ
[3]; [5]
  CBT concentration (individual mouse): BLOQ
  CBT concentration, Mean: BLOQ
[3]; male, ICR, mouse, plasma, iv, 15 mg/kg, mouse plasma, CBT succinate in 50% PEG300 formulation, time 0.083 h, read-out: CBT succinate concentration (individual mouse)
  concentration at 0.083 h: 5980 ng/mL
[3]; male, ICR, mouse, plasma, iv, 15 mg/kg, mouse plasma, CBT succinate in 50% PEG300 formulation, time 0.083 h, read-out: CBT succinate concentration, Mean
  concentration at 0.083 h: 5750 ng/mL
[3]; male, ICR, mouse, plasma, iv, 15 mg/kg, mouse plasma, CBT succinate in 50% PEG300 formulation, time 0.167 h, read-out: CBT succinate concentration (individual mouse)
  concentration at 0.167 h: 3100 ng/mL
[3]; male, ICR, mouse, plasma, iv, 15 mg/kg, mouse plasma, CBT succinate in 50% PEG300 formulation, time 0.167 h, read-out: CBT succinate concentration, Mean
  concentration at 0.167 h: 3030 ng/mL
[3]; male, ICR, mouse, plasma, iv, 15 mg/kg, mouse plasma, CBT succinate in 50% PEG300 formulation, time 0.5 h
  concentration at 0.5 h: 386 ng/mL
[3]; male, ICR, mouse, plasma, iv, 15 mg/kg, mouse plasma, CBT succinate in 50% PEG300 formulation, time 1 h
  concentration at 1 h: 50 ng/mL
[3]; male, ICR, mouse, plasma, iv, 15 mg/kg, mouse plasma, CBT succinate in 50% PEG300 formulation, time 2 h, read-out: CBT succinate concentration (individual mouse)
  concentration at 2 h: 15 ng/mL
[3]; male, ICR, mouse, plasma, iv, 15 mg/kg, mouse plasma, CBT succinate in 50% PEG300 formulation, time 2 h, read-out: CBT succinate concentration, Mean
  concentration at 2 h: 15 ng/mL
[3]; [6]
  C0: 10800 ng/mL
  MRT: 9.6 min
[3]; male, ICR, mouse plasma, CBT succinate in 50% PEG300 formulation, read-out: AUCInf of CBT Succinate
  AUC(0-inf): 1770 ng·h/mL
[3]; male, ICR, mouse plasma, CBT succinate in 50% PEG300 formulation, read-out: AUClast of CBT Succinate
  AUC(0-t): 1770 ng·h/mL
[3]; male, ICR, mouse plasma, CBT succinate in 50% PEG300 formulation, read-out: CL of CBT Succinate
  clearance: 141 mL/min/kg
[3]; male, ICR, mouse plasma, CBT succinate in 50% PEG300 formulation, read-out: Vss of CBT Succinate
  Vd: 1.38 L/kg
[3]; male, ICR, mouse plasma, CBT succinate in 50% PEG300 formulation, read-out: t1/2 of CBT Succinate (converted)
  half-life: 13.8 min
[3]; mice, 50% PEG300 formulation
  bioconversion of CBT succinate to CBT: very rapidly
[3]; [7]
  AUC Extr of CBT Succinate: 0.28%
  AUC/D of CBT Succinate: 118 kg·ng·h/mL/mg
[3]; mouse plasma, CBT succinate in 50% PEG300 formulation, time 0.083 h, 15 mg/kg
  CBT succinate concentration (individual mouse): 5803 ng/mL and 5480 ng/mL
[3]; mouse plasma, CBT succinate in 50% PEG300 formulation, time 0.167 h, 15 mg/kg
  CBT succinate concentration (individual mouse): 3144 ng/mL and 2857 ng/mL
[3]; mouse plasma, CBT succinate in 50% PEG300 formulation, time 0.5 h, 15 mg/kg
  CBT succinate concentration (individual mouse): 541 ng/mL and 397 ng/mL and 221 ng/mL
[3]; mouse plasma, CBT succinate in 50% PEG300 formulation, time 1 h, 15 mg/kg
  CBT succinate concentration (individual mouse): 25 ng/mL and 51 ng/mL and 73 ng/mL
[3]; mouse plasma, CBT succinate in 50% PEG300 formulation, time 2 h, 15 mg/kg
  CBT succinate concentration (individual mouse): BLOQ
[3]; [8]
  CBT succinate concentration (individual mouse): BLOQ
  CBT succinate concentration, Mean: BLOQ
[3]; [9]
  CBT succinate concentration (individual mouse): BLOQ
  CBT succinate concentration, Mean: BLOQ
[3]; [10]
  CBT succinate concentration (individual mouse): BLOQ
  CBT succinate concentration, Mean: BLOQ

## CO[C@H]1C(=O)[C@]2(C)[C@@H](OC)C[C@H]3OC[C@@]3(OC(C)=O)[C@H]2[C@H](OC(=O)c2ccccc2)[C@]2(O)C[C@H](OC(=O)[C@H](O)[C@@H](NC(=O)OC(C)(C)C)c3ccccc3)C(C)=C1C2(C)C [cabazitaxel]
[4]
  solubility: almost insoluble
